In patent US10077284B2, “UBA5 inhibitors” (THE GOVERNING COUNCIL OF THE UNIVERSITY OF TORONTO, priority 2014, dated 2018):
Where two headings read alike, the source gives them in different places.

Biological target: T1, GST-UBA5 (Homo sapiens, UniProt Q9GZZ9)
T1 construct: made in house
Test: UBA5 transthiolation assay (UFC1-UFM1 conjugate formation)
Format: biochemical
Details: for IC50: read-out: IC50; for inhibition at 0.1 µM: [Ligand] 0.1 μM; for inhibition at 0.1 µM / inhibition at 1 µM / inhibition at 5 µM / inhibition at 10 µM / inhibition at 50 µM / inhibition at 100 µM: n = 1; for inhibition at 1 µM: [Ligand] 1 μM; for inhibition at 5 µM: [Ligand] 5 μM; for inhibition at 10 µM: [Ligand] 10 μM; for inhibition at 50 µM: [Ligand] 50 μM; for inhibition at 100 µM: [Ligand] 100 μM

[1] = Table 1, transthiolation enzymatic assay
[2] = Table 3, n = 3, tested 0.1-100 μM

T1 sequence (Q9GZZ9 whole entry): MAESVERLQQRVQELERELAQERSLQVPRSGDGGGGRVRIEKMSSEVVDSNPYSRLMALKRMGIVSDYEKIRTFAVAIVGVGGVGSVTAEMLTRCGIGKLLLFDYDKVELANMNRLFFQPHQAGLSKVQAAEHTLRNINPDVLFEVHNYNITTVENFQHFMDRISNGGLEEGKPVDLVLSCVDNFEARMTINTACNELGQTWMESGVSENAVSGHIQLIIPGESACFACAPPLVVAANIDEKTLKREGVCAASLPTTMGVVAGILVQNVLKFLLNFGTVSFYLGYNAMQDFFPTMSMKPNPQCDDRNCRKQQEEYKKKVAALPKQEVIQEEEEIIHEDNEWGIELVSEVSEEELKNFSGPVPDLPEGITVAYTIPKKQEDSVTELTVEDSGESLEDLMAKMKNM
Method: Initial rates were recorded over 30 second time intervals from 0 to 2.5 min (normal kinetics) or 0 to 5 min (inhibition kinetics). Reactions were initiated by the addition of ATP and stopped using 4× Laemmli sample buffer (BioRad). The generated protein conjugates were separated on a 10% non-degenerating SDS-polyacrylamide gel (4-15% gels were used for the UAE transthiolaton assay), followed by Western blot analysis, with the exception of GST-UBA5 where protein bands were detected using Coomassie™ Brilliant Blue R-250 staining or Stain-Free gel imaging for the enzymatic assays (Bio-Rad). Transfers for the UAE and NAE immunoblots were performed using nitrocellulose membranes and blocking and blotting was performed as described above with cellular protein extracts. The His6-tagged Ub-UBCH6 complex was detected using an anti-His mouse monoclonal primary antibody (1:500, abcam). A rabbit anti-NEDD8 polyclonal primary antibody (1:500, BostonBiochem) was used for the detection of the E2-NEDD8 complexes. […] Inhibitory data was fit to a dose-response curve (Y=Bottom+(Top−Bottom)/(1+10^(X-Log IC50))) using GraphPad Prism 6.

Nc1ncnc2c1ncn2[C@@H]1O[C@H](C(=O)NCCCCCCN2CCNCCNCCNCC2)[C@@H](O)[C@H]1O.[Zn+2] [Compound 1.5.A.Zn, (2S,3S,4R,5R)—N-(6-(1,4,7,10-tetraazacyclododecan-1-yl)hexyl)-5-(6-amino-9H-purin-9-yl)-3,4-dihydroxytetrahydrofuran-2-carboxamide, zinc(II) trifluromethanesulfonate] showed an IC50 (Table 5, n = 3) of 38.2 µM.

With Nc1ncnc2c1ncn2[C@@H]1O[C@H](C(=O)NCCCC(=O)N2CCNCCNCCNCC2)[C@@H](O)[C@H]1O.[Zn+2] [Compound 1.3.Zn, (2S,3S,4R,5R)-5-(6-amino-9H-purin-9-yl)-3,4-dihydroxy-N-(4-oxo-4-(1,4,7,10-tetraazacyclododecan-1-yl)butyl)tetrahydrofuran-2-carboxamide zinc (II) trifluoromethanesulfonate] the IC50 [1] was 23.3 µM.

Work on Nc1ncnc2c1ncn2[C@@H]1O[C@H](C(=O)NCC(=O)N2CCCNCCNCCCNCC2)[C@@H](O)[C@H]1O.[Zn+2] [Compound 1.1.Cy.Zn, (2S,3S,4R,5R)-5-(6-amino-9H-purin-9-yl)-3,4-dihydroxy-N-(2-oxo-2-(1,4,8,11-tetraazacyclotetradecan-1-yl)ethyl)tetrahydrofuran-2-carboxamide, zinc(II) trifluromethanesulfonate] yielded an IC50 (Table 4, n = 3) of 4.24 µM.

In the case of “(2S,3S,4R,5R)-5-(6-amino-9H-purin-9-yl)-3,4-dihydroxy-N-(3-oxo-3-(1,4,7,10-tetraazacyclododecan-1-yl)propyl)tetrahydrofuran-2-carboxamide, copper(II) trifluromethanesulfonate [Compound 1.2.Cu]”, the IC50 [2] is reported as 39.6 µM.

“(2S,3S,4R,5R)-5-(6-(((S)-2,3-dihydro-1H-inden-1-yl)amino)-9H-purin-9-yl)-3,4-dihydroxy-N-(6-oxo-6-(1,4,7,10-tetraazacyclododecan-1-yl)hexyl)tetrahydrofuran-2-carboxamide, copper(II) trifluoromethanesulfonate [Compound 1.5.An6.Cu]” was tested, and the IC50 (Table 6, n = 3) was 12.5 µM.

Nc1ncnc2c1ncn2[C@@H]1O[C@H](C(=O)NCCCCCC(=O)N2CCNCCNCCNCC2)[C@@H](O)[C@H]1O.O=S(=O)([O-])C(F)(F)F.O=S(=O)([O-])C(F)(F)F.[Cu+2] [Compound 1.5.Cu, (2S,3S,4R,5R)—N-(6-(1,4,7,10-tetraazacyclododecan-1-yl)-6-oxohexyl)-5-(6-amino-9H-purin-9-yl)-3,4-dihydroxytetrahydrofuran-2-carboxamide copper (II) trifluoromethanesulfonate] was tested, and the IC50 [2] was > 100 µM.

“(2S,3S,4R,5R)-5-(6-amino-9H-purin-9-yl)-3,4-dihydroxy-N-(2-oxo-2-(1,4,7,10-tetraazacyclododecan-1-yl)ethyl)tetrahydrofuran-2-carboxamide, copper(II) trifluromethanesulfonate [Compound 1.1.Cu]” was tested, and the IC50 [2] was > 100 µM.

Nc1ncnc2c1ncn2[C@@H]1O[C@H](C(=O)NCCC(=O)N2CCNCCNCCNCC2)[C@@H](O)[C@H]1O.[Zn+2] [Compound 1.2.Zn, (2S,3S,4R,5R)-5-(6-amino-9H-purin-9-yl)-3,4-dihydroxy-N-(3-oxo-3-(1,4,7,10-tetraazacyclododecan-1-yl)propyl)tetrahydrofuran-2-carboxamide zinc (II) trifluoromethanesulfonate] showed an IC50 [1] of 8.9 µM.

Nc1ncnc2c1ncn2[C@@H]1O[C@H](C(=O)NCCN2CCCNCCNCCCNCC2)[C@@H](O)[C@H]1O.[Zn+2] [Compound 1.1.A.Cy.Zn, (2S,3S,4R,5R)—N-(2-(1,4,8,11-tetraazacyclotetradecan-1-yl)ethyl)-5-(6-amino-9H-purin-9-yl)-3,4-dihydroxytetrahydrofuran-2-carboxamide, zinc(II) trifluoromethanesulfonate] showed an IC50 (Table 5, n = 3) of 20 µM.

For Nc1ncnc2c1ncn2[C@@H]1O[C@H](C(=O)NCCCC(=O)N2CCNCCNCCNCC2)[C@@H](O)[C@H]1O [Compound 1.3, (2S,3S,4R,5R)-5-(6-amino-9H-purin-9-yl)-3,4-dihydroxy-N-(4-oxo-4-(1,4,7,10-tetraazacyclododecan-1-yl)butyl)tetrahydrofuran-2-carboxamide], the inhibition at 0.1 µM was 24%, the inhibition at 1 µM was 10% and the inhibition at 5 µM was 17%. For the same molecule, the inhibition at 10 µM was 28%, the inhibition at 50 µM was 11% and the inhibition at 100 µM was 0%.

In the case of “(2S,3S,4R,5R)-5-(6-amino-9H-purin-9-yl)-3,4-dihydroxy-N-(2-oxo-2-(1,4,7,10-tetraazacyclododecan-1-yl)ethyl)tetrahydrofuran-2-carboxamide zinc (II) trifluromethanesulfonate [Compound 1.1.Zn]”, the IC50 [1] is reported as 10.5 µM and the IC50 (Table 5, n = 3) is reported as 10.5 µM.

For C1CNCCNCCNCCN1.[Zn+2] [zinc(II) cyclen complex, reference compound], the “effect on the transthiolation reaction” value (at 100 μM) was “able to impede the transthiolation reaction”.

In the case of “(2S,3S,4R,5R)-5-(6-amino-9H-purin-9-yl)-3,4-dihydroxy-N-(4-oxo-4-(1,4,7,10-tetraazacyclododecan-1-yl)butyl)tetrahydrofuran-2-carboxamide, copper(II) trifluromethanesulfonate [Compound 1.3.Cu]”, the IC50 [2] is reported as > 100 µM.

Nc1ncnc2c1ncn2[C@@H]1O[C@H](C(=O)NCC(=O)N2CCNCCNCCNCC2)[C@@H](O)[C@H]1O [Compound 1.1, (2S,3S,4R,5R)-5-(6-amino-9H-purin-9-yl)-3,4-dihydroxy-N-(2-oxo-2-(1,4,7,10-tetraazacyclododecan-1-yl)ethyl)tetrahydrofuran-2-carboxamide] was tested, and the inhibition at 0.1 µM was 0%, the inhibition at 1 µM was 25% and the inhibition at 5 µM was 41%. The inhibition at 10 µM was 31%, the inhibition at 50 µM was 4% and the inhibition at 100 µM was 26%.

Work on “(2S,3S,4R,5R)-5-(6-amino-9H-purin-9-yl)-3,4-dihydroxy-N-(2-oxo-2-(1,4,8,11-tetraazacyclotetradecan-1-yl)ethyl)tetrahydrofuran-2-carboxamide, copper(II) trifluoromethanesulfonate [Compound 1.1.Cy.Cu]” yielded an IC50 (Table 4, n = 3) of 45.4 µM.

“(2S,3S,4R,5R)-5-(6-amino-9H-purin-9-yl)-3,4-dihydroxy-N-(5-oxo-5-(1,4,7,10-tetraazacyclododecan-1-yl)pentyl)tetrahydrofuran-2-carboxamide, copper(II) trifluoromethanesulfonate [Compound 1.4.Cu]” gave an IC50 [2] of 38.8 µM.

For “(2S,3S,4R,5R)—N-(6-(1,4,7,10-tetraazacyclododecan-1-yl)hexyl)-5-(6-amino-9H-purin-9-yl)-3,4-dihydroxytetrahydrofuran-2-carboxamide, copper(II) trifluromethanesulfonate [Compound 1.5.A.Cu]”, the IC50 (Table 5, n = 3) was > 100 µM.

Molecule O=C(NCCCCCC(=O)N1CCNCCNCCNCC1)[C@H]1O[C@@H](n2cnc3c(N[C@H]4CCc5ccccc54)ncnc32)[C@H](O)[C@@H]1O.[Zn+2] [Compound 1.5.An6.Zn, (2S,3S,4R,5R)-5-(6-(((S)-2,3-dihydro-1H-inden-1-yl)amino)-9H-purin-9-yl)-3,4-dihydroxy-N-(6-oxo-6-(1,4,7,10-tetraazacyclododecan-1-yl)hexyl)tetrahydrofuran-2-carboxamide, zinc(II) trifluoromethanesulfate] has an IC50 (Table 6, n = 3) of 13.6 µM.

With “(2S,3S,4R,5R)—N-(2-(1,4,7,10-tetraazacyclododecan-1-yl)ethyl)-5-(6-amino-9H-purin-9-yl)-3,4-dihydroxytetrahydrofuran-2-carboxamide, copper(II) trifluromethanesulfonate [Compound 1.1.A.Cu]” the IC50 (Table 5, n = 3) was 21.1 µM.

For Nc1ncnc2c1ncn2[C@@H]1O[C@H](C(=O)NCCCCC(=O)N2CCNCCNCCNCC2)[C@@H](O)[C@H]1O.[Zn+2] [Compound 1.4.Zn, (2S,3S,4R,5R)-5-(6-amino-9H-purin-9-yl)-3,4-dihydroxy-N-(5-oxo-5-(1,4,7,10-tetraazacyclododecan-1-yl)pentyl)tetrahydrofuran-2-carboxamide zinc (II) trifluoromethanesulfonate], the IC50 [1] was 5.2 µM.

Nc1ncnc2c1ncn2[C@@H]1O[C@H](C(=O)NCCN2CCNCCNCCNCC2)[C@@H](O)[C@H]1O.[Zn+2] [Compound 1.1.A.Zn, (2S,3S,4R,5R)—N-(2-(1,4,7,10-tetraazacyclododecan-1-yl)ethyl)-5-(6-amino-9H-purin-9-yl)-3,4-dihydroxytetrahydrofuran-2-carboxamide, zinc(II) trifluoromethanesulfonate] showed an IC50 (Table 5, n = 3) of 7.61 µM.
